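1) Cells in 96-well plates. 2) Compound, 48 h, 5 concentrations. 3) Linear interpolation between surrounding doses. 4) Unreached endpoint = highest concentration. GI50: concentration for 50% inhibition of growth.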 Activity calls are given as the source filed them. Rule as the data show it: active = GI50 up to about 1.1 µM and inactive = higher.
What was measured:
Experiment in all cases: DTP human tumour cell line panel, 48 h
MDA-MB-435 = test system: MDA-MB-435
SK-MEL-2 = test system: SK-MEL-2
CCRF-CEM = test system: CCRF-CEM
SK-OV-3 = test system: SK-OV-3
SNB-75 = test system: SNB-75
SF-539 = test system: SF-539
CAKI-1 = test system: CAKI-1
U-251 = test system: U-251
SW-620 = test system: SW-620
TK-10 = test system: TK-10
SF-295 = test system: SF-295
M14 = test system: M14
HCT-15 = test system: HCT-15
HT-29 = test system: HT-29
UACC-62 = test system: UACC-62
KM12 = test system: KM12
RPMI-8226 = test system: RPMI-8226
RXF 393 = test system: RXF 393
SF-268 = test system: SF-268
ACHN = test system: ACHN
OVCAR-8 = test system: OVCAR-8
T47D = test system: T47D
MCF7 = test system: MCF7
OVCAR-4 = test system: OVCAR-4
NCI-H226 = test system: NCI-H226
SK-MEL-28 = test system: SK-MEL-28
DU-145 = test system: DU-145
EKVX = test system: EKVX
SNB-19 = test system: SNB-19
MOLT-4 = test system: MOLT-4
A549 = test system: A549
IGROV-1 = test system: IGROV-1
786-0 = test system: 786-0
UACC-257 = test system: UACC-257
PC-3 = test system: PC-3
Hs-578T = test system: Hs-578T
OVCAR-5 = test system: OVCAR-5
MDA-MB-231 = test system: MDA-MB-231
HCC 2998 = test system: HCC 2998
NCI-H460 = test system: NCI-H460
COLO 205 = test system: COLO 205
HCT-116 = test system: HCT-116
SK-MEL-5 = test system: SK-MEL-5
HL-60 = test system: HL-60
HOP-62 = test system: HOP-62
UO-31 = test system: UO-31
NCI/ADR-RES = test system: NCI/ADR-RES
K562 = test system: K562
SR = test system: SR
SN12C = test system: SN12C
NCI-H23 = test system: NCI-H23
OVCAR-3 = test system: OVCAR-3
MDA-N = test system: MDA-N
Malme-3M = test system: Malme-3M
A498 = test system: A498
HOP-92 = test system: HOP-92
NCI-H522 = test system: NCI-H522
LOX IMVI = test system: LOX IMVI

## O=C(CP(=O)(c1ccccc1)c1ccccc1)c1cccc(C(=O)CP(=O)(c2ccccc2)c2ccccc2)c1
MDA-MB-435
  GI50: > 100 µM (inactive)
SK-MEL-2
  GI50: 49.9 µM (inactive)
CCRF-CEM
  GI50: > 100 µM (inactive)
SK-OV-3
  GI50: 23.3 µM (inactive)
SNB-75
  GI50: 20.4 µM (inactive)
SF-539
  GI50: 29.7 µM (inactive)
CAKI-1
  GI50: > 100 µM (inactive)
U-251
  GI50: > 10 µM (inactive)
SW-620
  GI50: > 100 µM (inactive)
TK-10
  GI50: 48.6 µM (inactive)
SF-295
  GI50: 14.6 µM (inactive)
M14
  GI50: > 100 µM (inactive)
HCT-15
  GI50: > 100 µM
HT-29
  GI50: > 100 µM (inactive)
UACC-62
  GI50: > 100 µM (inactive)
KM12
  GI50: > 100 µM (inactive)
RPMI-8226
  GI50: > 100 µM (inactive)
RXF 393
  GI50: 24.7 µM (inactive)
SF-268
  GI50: 30.2 µM (inactive)
ACHN
  GI50: > 100 µM (inactive)
OVCAR-8
  GI50: 43.1 µM (inactive)
T47D
  GI50: 76 µM (inactive)
MCF7
  GI50: 98.6 µM (inactive)
OVCAR-4
  GI50: > 100 µM (inactive)
NCI-H226
  GI50: 95.1 µM (inactive)
SK-MEL-28
  GI50: > 100 µM (inactive)
DU-145
  GI50: > 100 µM (inactive)
EKVX
  GI50: 56.8 µM (inactive)
SNB-19
  GI50: 29.2 µM (inactive)
MOLT-4
  GI50: > 100 µM (inactive)
A549
  GI50: > 100 µM (inactive)
IGROV-1
  GI50: 55.2 µM (inactive)
786-0
  GI50: 37.8 µM (inactive)
UACC-257
  GI50: > 100 µM (inactive)
PC-3
  GI50: > 100 µM (inactive)
Hs-578T
  GI50: 25.6 µM (inactive)
OVCAR-5
  GI50: 58.6 µM (inactive)
MDA-MB-231
  GI50: > 100 µM (inactive)
HCC 2998
  GI50: > 100 µM (inactive)
NCI-H460
  GI50: > 100 µM (inactive)
COLO 205
  GI50: > 100 µM (inactive)
HCT-116
  GI50: 48.9 µM (inactive)
SK-MEL-5
  GI50: > 100 µM (inactive)
HL-60
  GI50: > 100 µM (inactive)
HOP-62
  GI50: 34.4 µM (inactive)
UO-31
  GI50: 20.3 µM (inactive)
NCI/ADR-RES
  GI50: > 100 µM (inactive)
K562
  GI50: > 100 µM (inactive)
SR
  GI50: > 100 µM (inactive)
SN12C
  GI50: > 100 µM (inactive)

## COc1ccc(/C=C2\CN(C)C/C(=C\c3ccc(OC)cc3)C2=O)cc1
MDA-MB-435
  GI50: > 100 µM (inactive)
SK-MEL-2
  GI50: > 100 µM (inactive)
NCI-H23
  GI50: > 100 µM (inactive)
CCRF-CEM
  GI50: > 100 µM (inactive)
OVCAR-3
  GI50: > 100 µM (inactive)
SNB-75
  GI50: > 100 µM (inactive)
SF-539
  GI50: > 100 µM (inactive)
CAKI-1
  GI50: > 100 µM (inactive)
U-251
  GI50: > 100 µM (inactive)
SW-620
  GI50: > 100 µM (inactive)
TK-10
  GI50: > 100 µM (inactive)
SF-295
  GI50: > 100 µM (inactive)
M14
  GI50: > 100 µM (inactive)
HCT-15
  GI50: > 100 µM
HT-29
  GI50: > 100 µM (inactive)
UACC-62
  GI50: > 100 µM (inactive)
KM12
  GI50: > 100 µM (inactive)
RPMI-8226
  GI50: > 100 µM (inactive)
RXF 393
  GI50: > 100 µM (inactive)
SF-268
  GI50: > 100 µM (inactive)
MDA-N
  GI50: > 100 µM (inactive)
ACHN
  GI50: > 100 µM (inactive)
T47D
  GI50: > 100 µM (inactive)
OVCAR-4
  GI50: > 100 µM (inactive)
Malme-3M
  GI50: > 100 µM (inactive)
NCI-H226
  GI50: > 100 µM (inactive)
SK-MEL-28
  GI50: > 100 µM (inactive)
DU-145
  GI50: > 100 µM (inactive)
EKVX
  GI50: > 100 µM (inactive)
A498
  GI50: > 100 µM (inactive)
SNB-19
  GI50: > 100 µM (inactive)
MOLT-4
  GI50: > 100 µM (inactive)
A549
  GI50: > 100 µM (inactive)
IGROV-1
  GI50: 52.2 µM (inactive)
786-0
  GI50: 28.6 µM (inactive)
PC-3
  GI50: > 100 µM (inactive)
Hs-578T
  GI50: > 100 µM (inactive)
OVCAR-5
  GI50: > 100 µM (inactive)
MDA-MB-231
  GI50: > 100 µM (inactive)
HCC 2998
  GI50: > 100 µM (inactive)
HOP-92
  GI50: > 100 µM (inactive)
NCI-H460
  GI50: > 100 µM (inactive)
COLO 205
  GI50: > 100 µM (inactive)
HCT-116
  GI50: > 100 µM (inactive)
NCI-H522
  GI50: > 100 µM (inactive)
SK-MEL-5
  GI50: 32.8 µM (inactive)
HL-60
  GI50: > 100 µM (inactive)
HOP-62
  GI50: > 100 µM (inactive)
UO-31
  GI50: > 100 µM (inactive)
NCI/ADR-RES
  GI50: > 100 µM (inactive)
LOX IMVI
  GI50: > 100 µM (inactive)
K562
  GI50: > 100 µM (inactive)
SR
  GI50: > 100 µM (inactive)
SN12C
  GI50: > 100 µM (inactive)

— ChEMBL document CHEMBL1201862, “PubChem BioAssay data set” (2004)
